As a reminder, the IC50 is the concentration needed to halve the response being measured.

Drawing on patent US12673944B2, “Compounds having inhibitory activity against glucosylceramide synthase or pharmaceutically acceptable salt thereof, processes for preparing the same, and pharmaceutical compositions comprising the same” (YUHAN CORPORATION, priority 2019, dated 2026), this text covers IC50 for 29 compounds.

Read-outs that look alike come from different tables or passages of the source.

The subject of assay [1] is GM1 production in Jurkat cells. The experiment in a line: cells. In kind it is cell-based.
Assay [2] concerns the target T1, glucosylceramide synthase (GCS) (Homo sapiens, UniProt Q16739).
T1 construct: The obtained supernatant was used; host or cells: A549 cells (lysate supernatant after sonication)
T1 sequence (Q16739 1-394): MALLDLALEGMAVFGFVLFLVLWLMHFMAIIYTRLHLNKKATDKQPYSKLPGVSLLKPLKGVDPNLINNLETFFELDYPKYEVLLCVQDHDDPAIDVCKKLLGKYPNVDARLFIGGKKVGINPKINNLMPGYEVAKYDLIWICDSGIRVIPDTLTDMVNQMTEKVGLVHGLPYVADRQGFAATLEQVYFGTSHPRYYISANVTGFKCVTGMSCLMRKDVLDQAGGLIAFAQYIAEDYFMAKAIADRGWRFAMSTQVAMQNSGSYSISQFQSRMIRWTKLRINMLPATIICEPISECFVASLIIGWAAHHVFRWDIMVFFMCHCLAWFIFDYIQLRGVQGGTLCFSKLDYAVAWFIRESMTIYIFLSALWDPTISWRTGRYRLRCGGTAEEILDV
The experiment in a line: GCS enzyme inhibition assay (A549 cell lysate, NBD C6-ceramide, HPLC fluorescence). Type of assay: biochemical. As to conditions: inhibitory activity against GCS, 37° C., 90 minutes. An outline of the steps:
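Percent GCS activity was derived from the GlcCer share of Cer plus GlcCer areas, scaled from ibiglustat (0%) to DMSO (100%). Enzyme came from sonicated A549 lysate in 50 mM HEPES pH 7.3; 90 min incubation at 37° C, chloroform/methanol stop and extraction.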

Regarding `CC1(C)COc2cc(-c3ccc(C4CC4)cc3)ccc2C1NC(=O)O[C@@H]1CN2CCC1CC2` (stereo partly drawn) [Example 161, (S)-quinuclidin-3-yl (7-(4-cyclopropylphenyl)-3,3-dimethylchroman-4-yl)carbamate], the IC50 in assay [1] (Homo sapiens, Jurkat, 72 h) worked out at 0.18 nM; in assay [2] it was 0.38 nM.
As for `COc1ccccc1-c1ccc2c(c1)OCC(C)(C)C2NC(=O)O[C@@H]1CN2CCC1CC2` (stereo partly drawn) [Example 162, (S)-quinuclidin-3-yl (7-(2-methoxyphenyl)-3,3-dimethylchroman-4-yl)carbamate], the IC50 in assay [1] (Homo sapiens, Jurkat, 72 h) is 0.02 nM; in assay [2] it was 0.52 nM.
On the same counts, the results for `CC1(C)COc2cc(-c3ccc4c(c3)CCCO4)ccc2C1NC(=O)O[C@@H]1CN2CCC1CC2` (stereo partly drawn) [Example 163, (S)-quinuclidin-3-yl (3′,3′-dimethyl-[6,7′-bichroman]-4′-yl)carbamate] are 0.5 nM and 0.59 nM.
Taken in the same sequence, the figures for `CC1(C)COc2cc(-c3cc(Cl)cc(C(F)(F)F)c3)ccc2C1NC(=O)O[C@@H]1CN2CCC1CC2` (stereo partly drawn) [Example 164, (S)-quinuclidin-3-yl (7-(3-chloro-5-(trifluoromethyl)phenyl)-3,3-dimethylchroman-4-yl)carbamate] were 3.22 nM and 1.59 nM.
On the same counts, the results for `CC1(C)COc2cc(-c3cccc4cccnc34)ccc2C1NC(=O)O[C@@H]1CN2CCC1CC2` (stereo partly drawn) [Example 165, (S)-quinuclidin-3-yl (3,3-dimethyl-7-(quinolin-8-yl)chroman-4-yl)carbamate] are 0.66 nM and 0.82 nM.
Turning to `COc1cccc(-c2ccc3c(c2)OCC(C)(C)C3NC(=O)O[C@@H]2CN3CCC2CC3)c1` (stereo partly drawn) [Example 166, (S)-quinuclidin-3-yl (7-(3-methoxyphenyl)-3,3-dimethylchroman-4-yl)carbamate], the IC50 in assay [1] (Homo sapiens, Jurkat, 72 h) came to 0.07 nM; in assay [2], 0.31 nM.
Taken in the same sequence, the figures for `CC(C)Oc1ccc(-c2ccc3c(c2)OCC(C)(C)C3NC(=O)O[C@@H]2CN3CCC2CC3)cc1Cl` (stereo partly drawn) [Example 167, (S)-quinuclidin-3-yl (7-(3-chloro-4-isopropoxyphenyl)-3,3-dimethylchroman-4-yl)carbamate] were 3.28 nM and 0.71 nM.
In the case of `COc1cccc(OC)c1-c1ccc2c(c1)OCC(C)(C)C2NC(=O)O[C@@H]1CN2CCC1CC2` (stereo partly drawn) [Example 168, (S)-quinuclidin-3-yl (7-(2,6-dimethoxyphenyl)-3,3-dimethylchroman-4-yl)carbamate], the IC50 in assay [1] (Homo sapiens, Jurkat, 72 h) was 2.05 nM; in assay [2] it was 1.4 nM.
Regarding `CC1(C)COc2cc(-c3ccccc3Cl)ccc2C1NC(=O)O[C@@H]1CN2CCC1CC2` (stereo partly drawn) [Example 169, (S)-quinuclidin-3-yl (7-(2-chlorophenyl)-3,3-dimethylchroman-4-yl)carbamate], the IC50 is 0.25 nM in assay [1] (Homo sapiens, Jurkat, 72 h) and 0.37 nM in assay [2].
Consider `CC1(C)COc2cc(-c3cccc(C#N)c3)ccc2C1NC(=O)O[C@@H]1CN2CCC1CC2` (stereo partly drawn) [Example 170, (S)-quinuclidin-3-yl (7-(3-cyanophenyl)-3,3-dimethylchroman-4-yl)carbamate], for which the IC50 in assay [1] (Homo sapiens, Jurkat, 72 h) stood at 5.83 nM; in assay [2], 0.42 nM.
`CN(C)c1cc(-c2ccc3c(c2)OCC(C)(C)C3NC(=O)O[C@@H]2CN3CCC2CC3)ccc1F` (stereo partly drawn) [Example 171, (S)-quinuclidin-3-yl (7-(3-(dimethylamino)-4-fluorophenyl)-3,3-dimethylchroman-4-yl)carbamate]: the IC50 in assay [1] (Homo sapiens, Jurkat, 72 h) worked out at 5.23 nM; in assay [2] it was 0.79 nM.
`CC1(C)COc2cc(-c3ccc4c(c3)OCCO4)ccc2C1NC(=O)O[C@@H]1CN2CCC1CC2` (stereo partly drawn) [Example 172, (S)-quinuclidin-3-yl (7-(2,3-dihydrobenzo[b][1,4]dioxin-6-yl)-3,3-dimethylchroman-4-yl)carbamate]: the IC50 in assay [1] (Homo sapiens, Jurkat, 72 h) was determined as 1.92 nM; in assay [2], 0.37 nM.
Taken in the same sequence, the figures for `CC1(C)COc2cc(-c3cccc4cc[nH]c34)ccc2C1NC(=O)O[C@@H]1CN2CCC1CC2` (stereo partly drawn) [Example 173, (S)-quinuclidin-3-yl (7-(1H-indol-7-yl)-3,3-dimethylchroman-4-yl)carbamate] were 2.95 nM and 1.17 nM.
Taken in the same sequence, the figures for `CC(C)c1ccc(-c2ccc3c(c2)OCC(C)(C)C3NC(=O)O[C@@H]2CN3CCC2CC3)cc1` (stereo partly drawn) [Example 174, (S)-quinuclidin-3-yl (7-(4-isopropylphenyl)-3,3-dimethylchroman-4-yl)carbamate] were 1.37 nM and 0.35 nM.
On the same counts, the results for `CC1(C)COc2cc(-c3ccc(F)c(C(F)(F)F)c3)ccc2C1NC(=O)O[C@@H]1CN2CCC1CC2` (stereo partly drawn) [Example 175, (S)-quinuclidin-3-yl (7-(4-fluoro-3-(trifluoromethyl)phenyl)-3,3-dimethylchroman-4-yl)carbamate] are 2.2 nM and 0.71 nM.
Regarding `COc1cccc(-c2ccc3c(c2)OCC(C)(C)C3NC(=O)O[C@@H]2CN3CCC2CC3)c1Cl` (stereo partly drawn) [Example 176, (S)-quinuclidin-3-yl (7-(2-chloro-3-methoxyphenyl)-3,3-dimethylchroman-4-yl)carbamate], the IC50 stood at 3.2 nM in assay [1] (Homo sapiens, Jurkat, 72 h) and 0.59 nM in assay [2].
Taken in the same sequence, the figures for `COc1cc(-c2ccc3c(c2)OCC(C)(C)C3NC(=O)O[C@@H]2CN3CCC2CC3)ccc1Cl` (stereo partly drawn) [Example 177, (S)-quinuclidin-3-yl (7-(4-chloro-3-methoxyphenyl)-3,3-dimethylchroman-4-yl)carbamate] were 9.73 nM and 1.39 nM.
For `CC1(C)COc2cc(-c3cccc4cn[nH]c34)ccc2C1NC(=O)O[C@@H]1CN2CCC1CC2` (stereo partly drawn) [Example 178, (S)-quinuclidin-3-yl (7-(1H-indazol-7-yl)-3,3-dimethylchroman-4-yl)carbamate], the IC50 in assay [1] (Homo sapiens, Jurkat, 72 h) was found to be 4.36 nM; in assay [2] it was 1.14 nM.
On the same counts, the results for `CC1(C)COc2cc(-c3cc(Cl)cc(Cl)c3)ccc2C1NC(=O)O[C@@H]1CN2CCC1CC2` (stereo partly drawn) [Example 179, (S)-quinuclidin-3-yl (7-(3,5-dichlorophenyl)-3,3-dimethylchroman-4-yl)carbamate] are 4.42 nM and 1.31 nM.
On the same counts, the results for `CC1(C)COc2cc(-c3cnn(Cc4ccccc4)c3)ccc2C1NC(=O)O[C@@H]1CN2CCC1CC2` (stereo partly drawn) [Example 180, (S)-quinuclidin-3-yl (7-(1-benzyl-1H-pyrazol-4-yl)-3,3-dimethylchroman-4-yl)carbamate] are 3.42 nM and 0.44 nM.
With `CC1(C)COc2cc(-c3ccc4c(c3)CCO4)ccc2C1NC(=O)O[C@@H]1CN2CCC1CC2` (stereo partly drawn) [Example 181, (S)-quinuclidin-3-yl (7-(2,3-dihydrobenzofuran-5-yl)-3,3-dimethylchroman-4-yl)carbamate], the IC50 in assay [1] (Homo sapiens, Jurkat, 72 h) worked out at 5.55 nM; in assay [2], 0.5 nM.
Regarding `CC1(C)COc2cc(-c3ccc(OCC4CC4)nc3)ccc2C1NC(=O)O[C@@H]1CN2CCC1CC2` (stereo partly drawn) [Example 182, (S)-quinuclidin-3-yl (7-(6-(cyclopropylmethoxy)pyridin-3-yl)-3,3-dimethylchroman-4-yl)carbamate], the IC50 in assay [1] (Homo sapiens, Jurkat, 72 h) turned out to be 0.79 nM; in assay [2] it was 0.25 nM.
Taken in the same sequence, the figures for `CC1(C)COc2cc(-c3cc4ccccc4o3)ccc2C1NC(=O)O[C@@H]1CN2CCC1CC2` (stereo partly drawn) [Example 183, (S)-quinuclidin-3-yl (7-(benzofuran-2-yl)-3,3-dimethylchroman-4-yl)carbamate] were 6.43 nM and 1.22 nM.
On the same counts, the results for `CC1(C)COc2cc(-c3cccc(S(=O)(=O)N4CCCC4)c3)ccc2C1NC(=O)O[C@@H]1CN2CCC1CC2` (stereo partly drawn) [Example 184, (S)-quinuclidin-3-yl (3,3-dimethyl-7-(3-(pyrrolidin-1-ylsulfonyl)phenyl)chroman-4-yl)carbamate] are 4.16 nM and 0.91 nM.
Turning to `CC1(C)COc2cc(-c3ccccc3C(F)(F)F)ccc2C1NC(=O)O[C@@H]1CN2CCC1CC2` (stereo partly drawn) [Example 185, (S)-quinuclidin-3-yl (3,3-dimethyl-7-(2-(trifluoromethyl)phenyl)chroman-4-yl)carbamate], the IC50 in assay [1] (Homo sapiens, Jurkat, 72 h) was 0.98 nM; in assay [2], 0.67 nM.
On the same counts, the results for `CCOc1ccccc1-c1ccc2c(c1)OCC(C)(C)C2NC(=O)O[C@@H]1CN2CCC1CC2` (stereo partly drawn) [Example 186, (S)-quinuclidin-3-yl (7-(2-ethoxyphenyl)-3,3-dimethylchroman-4-yl)carbamate] are 2.81 nM and 0.38 nM.
With `CC1(C)COc2cc(-c3ccsc3)ccc2C1NC(=O)O[C@@H]1CN2CCC1CC2` (stereo partly drawn) [Example 187, (S)-quinuclidin-3-yl (3,3-dimethyl-7-(thiophen-3-yl)chroman-4-yl)carbamate], the IC50 in assay [1] (Homo sapiens, Jurkat, 72 h) is 2.06 nM; in assay [2], 0.32 nM.
For `COc1ccc(-c2ccc3c(c2)OCC(C)(C)C3NC(=O)O[C@@H]2CN3CCC2CC3)cc1C(F)(F)F` (stereo partly drawn) [Example 188, (S)-quinuclidin-3-yl (7-(4-methoxy-3-(trifluoromethyl)phenyl)-3,3-dimethylchroman-4-yl)carbamate], the figures for the IC50 in assay [1] and in assay [2] were 4.59 nM and 0.75 nM, respectively.
For the compound `CC1(C)COc2cc(-c3ccccc3C#N)ccc2C1NC(=O)O[C@@H]1CN2CCC1CC2` (stereo partly drawn) [Example 189, (S)-quinuclidin-3-yl (7-(2-cyanophenyl)-3,3-dimethylchroman-4-yl)carbamate], the IC50 was 0.04 nM in assay [1] (Homo sapiens, Jurkat, 72 h) and 0.36 nM in assay [2].
